Assays:
[1] = molecular target: T1, von Hippel-Lindau disease tumor suppressor/Androgen receptor (Homo sapiens, UniProt P10275+P40337); assay: Protac activity at VHL/AR in AR-positive human LNCaP cells assessed as induction of androgen receptor degradation at 0.1 uM incubated for 6 hrs by Western blot analysis (reference value: 0%); format: cell-based
[2] = molecular target: T1, von Hippel-Lindau disease tumor suppressor/Androgen receptor; assay: Protac activity at VHL/AR in AR-positive human LNCaP cells assessed as induction of androgen receptor degradation at 0.01 uM incubated for 6 hrs by Western blot analysis (reference value: 0%); format: cell-based
[3] = test system: LNCaP; assay: Cytotoxicity against AR-positive human LNCaP cells assessed as inhibition of cell growth incubated for 7 days in presence of AR agonist, R1881 in charcoal stripped medium by WST-8 assay; format: functional, cell-based; conditions: 168 h
[4] = test system: VCaP; assay: Cytotoxicity against AR-positive human VCaP cells assessed as inhibition of cell growth incubated for 7 days in presence of AR agonist, R1881 in charcoal stripped medium by WST-8 assay; format: functional, cell-based; conditions: 168 h
[5] = test system: CWR22R; assay: Cytotoxicity against AR-positive human 22Rv1 cells assessed as inhibition of cell growth incubated for 7 days in regular culture medium by WST-8 assay; format: functional, cell-based; conditions: 22Rv1, 168 h

T1 sequence (P10275 whole entry, looked up): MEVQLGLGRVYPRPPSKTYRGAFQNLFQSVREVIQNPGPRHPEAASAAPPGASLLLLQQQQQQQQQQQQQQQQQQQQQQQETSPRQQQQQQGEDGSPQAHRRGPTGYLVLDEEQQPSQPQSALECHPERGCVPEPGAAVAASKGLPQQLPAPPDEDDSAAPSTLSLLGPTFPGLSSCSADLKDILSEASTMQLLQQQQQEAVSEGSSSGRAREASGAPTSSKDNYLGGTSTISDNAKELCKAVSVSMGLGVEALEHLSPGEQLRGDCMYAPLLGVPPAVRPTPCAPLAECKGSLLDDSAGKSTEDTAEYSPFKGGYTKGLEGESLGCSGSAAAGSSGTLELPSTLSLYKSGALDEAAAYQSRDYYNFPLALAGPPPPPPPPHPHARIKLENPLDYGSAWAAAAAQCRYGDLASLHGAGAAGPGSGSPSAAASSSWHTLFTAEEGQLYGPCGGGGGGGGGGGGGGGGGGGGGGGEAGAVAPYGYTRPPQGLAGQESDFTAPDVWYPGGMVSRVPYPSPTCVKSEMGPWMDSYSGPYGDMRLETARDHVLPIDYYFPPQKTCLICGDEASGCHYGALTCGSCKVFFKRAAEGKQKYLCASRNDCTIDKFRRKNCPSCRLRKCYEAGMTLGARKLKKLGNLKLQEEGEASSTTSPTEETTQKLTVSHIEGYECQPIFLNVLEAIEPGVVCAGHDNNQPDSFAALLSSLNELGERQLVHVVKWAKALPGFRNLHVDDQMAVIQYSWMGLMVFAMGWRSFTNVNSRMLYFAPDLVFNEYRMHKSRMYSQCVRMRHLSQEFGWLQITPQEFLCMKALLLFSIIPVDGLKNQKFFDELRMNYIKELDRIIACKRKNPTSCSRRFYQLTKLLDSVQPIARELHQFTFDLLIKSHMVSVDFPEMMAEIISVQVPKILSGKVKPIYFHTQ
T1 sequence (P40337 whole entry, looked up): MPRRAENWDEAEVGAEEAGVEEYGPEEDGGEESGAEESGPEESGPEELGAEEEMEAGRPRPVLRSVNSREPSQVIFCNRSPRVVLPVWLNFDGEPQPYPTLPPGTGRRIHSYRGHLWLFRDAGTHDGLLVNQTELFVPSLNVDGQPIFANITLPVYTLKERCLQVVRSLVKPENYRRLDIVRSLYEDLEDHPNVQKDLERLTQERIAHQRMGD

| Activity [1] [%] | Activity [2] [%] | Compound | other results |
| --- | --- | --- | --- |
| 66 | 15 | Cc1ncsc1-c1ccc(CNC(=O)[C@@H]2C[C@@H](O)CN2C(=O)[C@@H](NC(=O)CCCCCCCCNC(=O)c2ccc(N3C(=S)N(c4ccc(C#N)c(C(F)(F)F)c4)C(=O)C3(C)C)cc2F)C(C)(C)C)cc1 | – |
| 16 | – | Cc1ncsc1-c1ccc(CNC(=O)[C@@H]2C[C@@H](O)CN2C(=O)[C@@H](NC(=O)CCCCNC(=O)c2ccc(N3C(=S)N(c4ccc(C#N)c(C(F)(F)F)c4)C(=O)C3(C)C)cc2F)C(C)(C)C)cc1 | – |
| 63 | 30 | Cc1ncsc1-c1ccc(CNC(=O)[C@@H]2C[C@@H](O)CN2C(=O)[C@@H](NC(=O)CCCCCCc2ccc(C#Cc3ccc(N4C(=S)N(c5ccc(C#N)c(C(F)(F)F)c5)C(=O)C4(C)C)cc3)cn2)C(C)(C)C)cc1 | – |
| < 5 | – | Cc1ncsc1-c1ccc([C@@H](CC(=O)N2CCC(N3CCC(C#Cc4ccc(C(=O)N[C@H]5C(C)(C)[C@H](Oc6ccc(C#N)c(Cl)c6)C5(C)C)cc4)CC3)CC2)NC(=O)[C@@H]2C[C@@H](O)CN2C(=O)[C@@H](NC(=O)C2(F)CC2)C(C)(C)C)cc1 | – |
| 0 | – | Cc1ncsc1-c1ccc([C@H](C)NC(=O)[C@@H]2C[C@@H](O)CN2C(=O)[C@@H](NC(=O)N2CCN(c3ccc(C#Cc4ccc(N5C(=S)N(c6ccc(C#N)c(C(F)(F)F)c6)C(=O)C5(C)C)cc4)cn3)CC2)C(C)(C)C)cc1 | – |
| 77 | 39 | CC(=O)N[C@H](C(=O)N1C[C@H](O)C[C@H]1C(=O)N[C@@H](CC(=O)N1CCC(N2CCC(C#Cc3ccc(C(=O)N[C@H]4C(C)(C)[C@H](Oc5ccc(C#N)c(Cl)c5)C4(C)C)cc3)CC2)CC1)c1ccc(-c2scnc2C)cc1)C(C)(C)C | – |
| 15 | – | Cc1ncsc1-c1ccc(CNC(=O)[C@@H]2C[C@@H](O)CN2C(=O)[C@@H](NC(=O)CCCNC(=O)c2ccc(N3C(=S)N(c4ccc(C#N)c(C(F)(F)F)c4)C(=O)C3(C)C)cc2F)C(C)(C)C)cc1 | – |
| 65 | – | Cc1cc([C@H](C(=O)N2C[C@H](O)C[C@H]2C(=O)N[C@@H](CC(=O)N2CCC(N3CCC(C#Cc4ccc(Cc5c(C)nn(-c6ccc(C#N)c(Cl)c6)c5C)cc4)CC3)CC2)c2ccc(-c3scnc3C)cc2)C(C)C)on1 | – |
| 18 | – | Cc1cc([C@H](C(=O)N2C[C@H](O)C[C@H]2C(=O)N[C@@H](CC(=O)N2CCC(N3CCC(C#Cc4ccc(S(=O)(=O)CC(C)(O)C(=O)Nc5ccc(C#N)c(C(F)(F)F)c5)cc4)CC3)CC2)c2ccc(-c3scnc3C)cc2)C(C)C)on1 (stereo partly drawn) | – |
| 80 | 38 | Cc1cc([C@H](C(=O)N2C[C@H](O)C[C@H]2C(=O)N[C@@H](CC(=O)N2CCC(N3CCC(C#Cc4ccc(N5C(=S)N(c6cnc(C#N)c(C(F)(F)F)c6)C(=O)C56CCC6)cc4)CC3)CC2)c2ccc(-c3scnc3C)cc2)C(C)C)on1 | – |
| – | – | CNC(=O)c1ccc(N2C(=S)N(c3ccc(C#N)c(C(F)(F)F)c3)C(=O)C2(C)C)cc1F [ENZALUTAMIDE] | IC50 [3]: 25 nM; IC50 [4]: 87.4 nM |
| 32 | – | Cc1ncsc1-c1ccc(CNC(=O)[C@@H]2C[C@@H](O)CN2C(=O)[C@@H](NC(=O)CCOCCOCCNC(=O)c2ccc(N3C(=S)N(c4ccc(C#N)c(C(F)(F)F)c4)C(=O)C3(C)C)cc2F)C(C)(C)C)cc1 | – |
| < 5 | – | Cc1ncsc1-c1ccc([C@H](CC(=O)N2CCC(N3CCC(C#Cc4ccc(C(=O)N[C@H]5C(C)(C)[C@H](Oc6ccc(C#N)c(Cl)c6)C5(C)C)cc4)CC3)CC2)NC(=O)[C@@H]2C[C@@H](O)CN2C(=O)[C@H](NC(=O)C2(F)CC2)C(C)(C)C)cc1 | – |
| 48 | 28 | Cc1ncsc1-c1ccc([C@H](C)NC(=O)[C@@H]2C[C@@H](O)CN2C(=O)[C@@H](NC(=O)CCCCN2CCN(c3ccc(C#Cc4ccc(N5C(=S)N(c6ccc(C#N)c(C(F)(F)F)c6)C(=O)C5(C)C)cc4)cn3)CC2)C(C)(C)C)cc1 | – |
| 30 | – | Cc1ncsc1-c1ccc(CNC(=O)[C@@H]2C[C@@H](O)CN2C(=O)[C@@H](NC(=O)CCCCCCCCCCCNC(=O)c2ccc(N3C(=S)N(c4ccc(C#N)c(C(F)(F)F)c4)C(=O)C3(C)C)cc2F)C(C)(C)C)cc1 | – |
| 75 | 27 | Cc1cc([C@H](C(=O)N2C[C@H](O)C[C@H]2C(=O)N[C@@H](CC(=O)NCCCN2CCN(c3ccc(C#Cc4ccc(N5C(=S)N(c6ccc(C#N)c(C(F)(F)F)c6)C(=O)C5(C)C)cc4)cn3)CC2)c2ccc(-c3sncc3C)cc2)C(C)C)on1 | – |
| 48 | 10 | Cc1ncsc1-c1ccc(CNC(=O)[C@@H]2C[C@@H](O)CN2C(=O)[C@@H](NC(=O)CCCCCCCCCNC(=O)c2ccc(N3C(=S)N(c4ccc(C#N)c(C(F)(F)F)c4)C(=O)C3(C)C)cc2F)C(C)(C)C)cc1 | – |

| Activity [1] [%] | Activity [2] [%] | Compound | other results |
| --- | --- | --- | --- |
| 72 | 22 | Cc1cc([C@H](C(=O)N2C[C@H](O)C[C@H]2C(=O)N[C@@H](CC(=O)N2CCN(c3ccc(C#Cc4ccc(N5C(=S)N(c6ccc(C#N)c(C(F)(F)F)c6)C(=O)C5(C)C)cc4)cn3)CC2)c2ccc(-c3scnc3C)cc2)C(C)C)on1 | – |
| 50 | 11 | Cc1cc([C@H](C(=O)N2C[C@H](O)C[C@H]2C(=O)N[C@@H](CC(=O)NCCCCCCCCCNC(=O)c2ccc(N3C(=S)N(c4ccc(C#N)c(C(F)(F)F)c4)C(=O)C3(C)C)cc2F)c2ccc(-c3sncc3C)cc2)C(C)C)on1 | – |
| 48 | 11 | Cc1ncsc1-c1ccc(CNC(=O)[C@@H]2C[C@@H](O)CN2C(=O)[C@@H](NC(=O)CCCCCCCCCCNC(=O)c2ccc(N3C(=S)N(c4ccc(C#N)c(C(F)(F)F)c4)C(=O)C3(C)C)cc2F)C(C)(C)C)cc1 | – |
| 61 | 37 | Cc1ncsc1-c1ccc([C@H](C)NC(=O)[C@@H]2C[C@@H](O)CN2C(=O)[C@@H](NC(=O)CCCN2CCN(c3ccc(C#Cc4ccc(N5C(=S)N(c6ccc(C#N)c(C(F)(F)F)c6)C(=O)C5(C)C)cc4)cn3)CC2)C(C)(C)C)cc1 | – |
| 54 | – | Cc1ncsc1-c1ccc(CNC(=O)[C@@H]2C[C@@H](O)CN2C(=O)[C@@H](NC(=O)CCCCCCNC(=O)c2ccc(N3C(=S)N(c4ccc(C#N)c(C(F)(F)F)c4)C(=O)C3(C)C)cc2F)C(C)(C)C)cc1 | – |
| 29 | 8 | Cc1ncsc1-c1ccc(CNC(=O)[C@@H]2C[C@@H](O)CN2C(=O)[C@@H](NC(=O)CCCCCCCNC(=O)c2ccc(N3C(=S)N(c4ccc(C#N)c(C(F)(F)F)c4)C(=O)C3(C)C)cc2F)C(C)(C)C)cc1 | – |
| 3 | – | Cc1ncsc1-c1ccc([C@H](C)NC(=O)[C@@H]2C[C@@H](O)CN2C(=O)[C@@H](NC(=O)CN2CCN(c3ccc(C#Cc4ccc(N5C(=S)N(c6ccc(C#N)c(C(F)(F)F)c6)C(=O)C5(C)C)cc4)cn3)CC2)C(C)(C)C)cc1 | – |
| 98 | 76 | Cc1cc([C@H](C(=O)N2C[C@H](O)C[C@H]2C(=O)N[C@@H](CC(=O)N2CCC(N3CCC(C#Cc4ccc(C(=O)N[C@H]5C(C)(C)[C@H](Oc6ccc(C#N)c(Cl)c6)C5(C)C)cc4)CC3)CC2)c2ccc(-c3scnc3C)cc2)C(C)C)on1 | – |
| – | – | CC1(C)[C@H](NC(=O)c2cnn(CCO)c2)C(C)(C)[C@H]1Oc1ccc(C#N)c(Cl)c1 | IC50 [3]: 48 nM; IC50 [4]: 148 nM; IC50 [5]: > 10000 nM |
| 99 | 76 | Cc1ncsc1-c1ccc([C@H](CC(=O)N2CCC(N3CCC(C#Cc4ccc(C(=O)N[C@H]5C(C)(C)[C@H](Oc6ccc(C#N)c(Cl)c6)C5(C)C)cc4)CC3)CC2)NC(=O)[C@@H]2C[C@@H](O)CN2C(=O)[C@@H](NC(=O)C2(C#N)CC2)C(C)(C)C)cc1 | – |
| 11 | – | Cc1ncsc1-c1ccc(CNC(=O)[C@@H]2C[C@@H](O)CN2C(=O)[C@@H](NC(=O)CCCCCNC(=O)c2ccc(N3C(=S)N(c4ccc(C#N)c(C(F)(F)F)c4)C(=O)C3(C)C)cc2F)C(C)(C)C)cc1 | – |
| 51 | 34 | Cc1ncsc1-c1ccc([C@H](C)NC(=O)[C@@H]2C[C@@H](O)CN2C(=O)[C@@H](NC(=O)CCN2CCN(c3ccc(C#Cc4ccc(N5C(=S)N(c6ccc(C#N)c(C(F)(F)F)c6)C(=O)C5(C)C)cc4)cn3)CC2)C(C)(C)C)cc1 | – |
| 26 | – | Cc1ncsc1-c1ccc(CNC(=O)[C@@H]2C[C@@H](O)CN2C(=O)[C@@H](NC(=O)CCNC(=O)c2ccc(N3C(=S)N(c4ccc(C#N)c(C(F)(F)F)c4)C(=O)C3(C)C)cc2F)C(C)(C)C)cc1 | – |
| 50 | – | Cc1ncsc1-c1ccc(CNC(=O)[C@@H]2C[C@@H](O)CN2C(=O)[C@@H](NC(=O)CCCN2CCN(c3ccc(C#Cc4ccc(N5C(=S)N(c6ccc(C#N)c(C(F)(F)F)c6)C(=O)C5(C)C)cc4)cn3)CC2)C(C)(C)C)cc1 | – |
| 81 | 20 | Cc1cc([C@H](C(=O)N2C[C@H](O)C[C@H]2C(=O)N[C@@H](CC(=O)N2CCC(N3CCC(C#Cc4ccc(N5C(=S)N(c6ccc(C#N)c(C(F)(F)F)c6)C(=O)C5(C)C)cc4)CC3)CC2)c2ccc(-c3scnc3C)cc2)C(C)C)on1 | – |
| 91 | 43 | Cc1cc([C@H](C(=O)N2C[C@H](O)C[C@H]2C(=O)N[C@@H](CC(=O)NCCCCCCCCCNC(=O)c2ccc(C(=O)N[C@H]3C(C)(C)[C@H](Oc4ccc(C#N)c(Cl)c4)C3(C)C)cc2)c2ccc(-c3scnc3C)cc2)C(C)C)on1 | – |

Reference: ChEMBL document CHEMBL5260842 (J Med Chem, 2019)
